Data on 15 molecules can be found in patent US20070184519A1, “Peptides, polypeptides, and proteins of reduced immunogenicity and methods for their production” (priority 2003, published 2007).

For orientation: IC50 means the point on the concentration scale where inhibition reaches its midpoint. The low end stands for higher potency, the high end for lower potency.

Where two headings read alike, the source gives them in different places. Ends that are not written are not given here.

One assay deals with T1, DRB5*0101 (Homo sapiens, UniProt P01903+Q30154).
T1 construct: Epstein-Barr virus (EBV) transformed homozygous cell lines were used as sources of human HLA Class II molecules; endogenous in cells; host or cells: GM3107 (EBV-transformed homozygous B cell line)
Nature of the assay: Class II peptide-binding assay DRB5*0101 (DR2w2a).

A further assay addresses T2, DRB1*0701 (Homo sapiens, UniProt P01903+P01911, A100R/A102G/A103Q/D57E/D86V/E43K/F76Y/K127E/L162R/M171V/P40G/Q125H/Q99D/R33Q/R42Y/R54Q/S133A/S66F/T210M/V115G/Y107V/Y59L/Y89S).
T2 construct: Epstein-Barr virus (EBV) transformed homozygous cell lines were used as sources of human HLA Class II molecules; endogenous in cells; host or cells: PITOUT (EBV-transformed homozygous B cell line)
The experiment in a line: Class II peptide-binding assay DRB1*0701 (DR7). Conditions: known HLA-DR and DQ restricted epitopes, Table 6.

Another assay concerns the target T3, DRB4*0101 (Homo sapiens, UniProt P01903+P13762, G164S).
T3 construct: expressed in transfected cells; host or cells: transfected fibroblasts L257.6
Nature of the assay: Class II peptide-binding assay DRB4*0101 (DRw53).

Another assay has as its target T4, DRB1*1101 (Homo sapiens, UniProt P01903+P01911, A100R/A169T/A87E/I96F/K41T/L162R/M171V/P40S/Q125H/Q178H/Q39Y/Q99D/R42S/S66Y/T262R/V115G/W38E).
T4 construct: Epstein-Barr virus (EBV) transformed homozygous cell lines were used as sources of human HLA Class II molecules; endogenous in cells; host or cells: SWEIG (EBV-transformed homozygous B cell line)
The experiment in a line: Class II peptide-binding assay DRB1*1101 (DR5w11).

Another assay deals with T5, DRB1*0301 (Homo sapiens, UniProt P01903+P01911, A100K/A102G/A103R/A169T/F55Y/I96L/K41T/L162R/M171V/P40S/Q125H/Q178H/Q39Y/R42S/S66N/T106N/T262R/W38E/Y61H).
T5 construct: Epstein-Barr virus (EBV) transformed homozygous cell lines were used as sources of human HLA Class II molecules; endogenous in cells; host or cells: MAT (EBV-transformed homozygous B cell line)
T5 sequence (P01903 26-254, other chains not shown): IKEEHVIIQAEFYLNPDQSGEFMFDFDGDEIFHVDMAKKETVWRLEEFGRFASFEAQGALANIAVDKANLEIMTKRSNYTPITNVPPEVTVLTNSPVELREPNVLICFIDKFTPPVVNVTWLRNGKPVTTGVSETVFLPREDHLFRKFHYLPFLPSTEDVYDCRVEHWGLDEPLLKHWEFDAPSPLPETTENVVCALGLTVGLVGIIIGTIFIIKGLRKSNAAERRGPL
The experiment in a line: Class II peptide-binding assay DRB1*0301 (DR3).

A further assay addresses T6, DRB3*0101 (Homo sapiens, UniProt P01903+P79483).
T6 construct: expressed in transfected cells; host or cells: transfected fibroblasts TR81.19
The experiment in a line: Class II peptide-binding assay DRB3*0101 (DR52a).

In another assay the target is T7, DRB1*0401 (Homo sapiens, UniProt P01903+P01911, A100K/A169T/F76Y/I96L/K127E/L162R/M171V/N62H/P40V/Q125Y/R42H/S133A/S149N/S66Y/V115G/V209L/W38E).
T7 construct: Epstein-Barr virus (EBV) transformed homozygous cell lines were used as sources of human HLA Class II molecules; endogenous in cells; host or cells: PREISS (EBV-transformed homozygous B cell line)
The experiment in a line: Class II peptide-binding assay DRB1*0401 (DR4w4).

Another assay has as its target T8, DRB1*0101 (Homo sapiens, UniProt P01903+P01911, A100R/D57E/F55L/F60I/F76Y/I96L/L162R/M171V/P40L/Q125E/R42F/V115G/Y59C).
T8 construct: Epstein-Barr virus (EBV) transformed homozygous cell lines were used as sources of human HLA Class II molecules; endogenous in cells; host or cells: LG2 (EBV-transformed homozygous B cell line)
The experiment in a line: Class II peptide-binding assay DRB1*0101 (DR1).

Another assay concerns the target T9, DRB1*1302 (Homo sapiens, UniProt P01903+P01911, A100E/A169T/K41T/L162R/M171V/P40S/Q125H/Q178H/Q39Y/Q99D/R42S/S66N/T262R/V115G/W38E/Y61H).
T9 construct: Epstein-Barr virus (EBV) transformed homozygous cell lines were used as sources of human HLA Class II molecules; endogenous in cells; host or cells: HO301 / H0301 (EBV-transformed homozygous B cell line)
Nature of the assay: Class II peptide-binding assay DRB1*1302 (DR6w19).

Another assay concerns the target T10, DRB1*0405 (Homo sapiens, UniProt P01903+P01911, A100R/A169T/D86S/F76Y/I96L/K127E/L162R/M171V/N62H/P40V/Q125Y/R42H/S133A/S149N/S66Y/V115G/V209L/W38E).
T10 construct: Epstein-Barr virus (EBV) transformed homozygous cell lines were used as sources of human HLA Class II molecules; endogenous in cells; host or cells: KT3 (EBV-transformed homozygous B cell line)
The experiment in a line: Class II peptide-binding assay DRB1*0405 (DR4w15).

The target in a further assay is T11, DRB1*0404 (Homo sapiens, UniProt P01903+P01911, A100R/A169T/F76Y/I96L/K127E/L162R/M171V/N62H/P40V/Q125Y/R42H/S133A/S149N/S66Y/V209L/W38E).
T11 construct: Epstein-Barr virus (EBV) transformed homozygous cell lines were used as sources of human HLA Class II molecules; endogenous in cells; host or cells: BIN40 (EBV-transformed homozygous B cell line)
Nature of the assay: Class II peptide-binding assay DRB1*0404 (DR4w14).

The target in another assay is T12, DRB1*0802 (Homo sapiens, UniProt P01903+P01911, A100R/A103L/A169T/F76Y/H45Y/I96F/K41T/L162R/M171V/P40S/Q125H/Q178H/Q39Y/Q99D/R218S/R42G/S66Y/V115G/W38E).
T12 construct: Epstein-Barr virus (EBV) transformed homozygous cell lines were used as sources of human HLA Class II molecules; endogenous in cells; host or cells: OLL (EBV-transformed homozygous B cell line)
Nature of the assay: Class II peptide-binding assay DRB1*0802 (DR8w2).

The mark [1] stands for this setting: known HLA-DR and DQ restricted epitopes, Table 6.
Setting [2] is: inhibition of radiolabeled probe binding, — read as no appreciable binding.

T9 sequence (P01903 26-254, other chains not shown): as above
T4 sequence (P01903 26-254, other chains not shown): as above

For the molecule `CC[C@H](C)[C@H](NC(=O)[C@H](Cc1ccc(O)cc1)NC(=O)[C@@H]1CCCN1C(=O)[C@H](CC(=O)O)NC(=O)[C@H](CCC(=O)O)NC(=O)[C@H](CC(C)C)NC(=O)[C@@H](NC(=O)[C@H](C)N)C(C)C)C(=O)N[C@@H](CC(C)C)C(=O)N[C@@H](CC(C)C)C(=O)N[C@H](C(=O)N[C@@H](CO)C(=O)N[C@@H](CO)C(=O)N[C@@H](CCCCN)C(=O)N[C@H](C(=O)N[C@@H](CO)C(=O)O)C(C)C)C(C)C`, the concentration for half-maximal inhibition (IC50) is 2500 nM at DRB5*0101; 73 nM at DRB1*0701; 4210 nM on DRB4*0101; 6670 nM on DRB1*1101 (setting [1]); over 20000 nM at DRB1*0301 (setting [1]); 5000 nM at DRB3*0101. Further, the IC50 at DRB1*0401 (setting [1]) amounted to 182 nM.
For `CC(C)C[C@H](NC(=O)[C@H](Cc1ccccc1)NC(=O)[C@H](CC(N)=O)NC(=O)[C@H](CO)NC(=O)[C@H](Cc1ccc(O)cc1)NC(=O)[C@@H](NC(=O)[C@H](CCCNC(=N)N)NC(=O)[C@H](Cc1ccccc1)NC(=O)[C@H](C)NC(=O)[C@H](CCCCN)NC(=O)[C@H](CCCNC(=N)N)NC(=O)[C@H](Cc1ccccc1)NC(=O)[C@@H](NC(=O)[C@@H](N)CC(=O)O)[C@@H](C)O)C(C)C)C(=O)N[C@@H](CCCNC(=N)N)C(=O)O`, the concentration for half-maximal inhibition (IC50) on DRB5*0101 was 80 nM; on DRB1*0101, 68 nM; on DRB1*1101, 5.3 nM; at DRB1*1302, 123 nM; at DRB1*0401 it was 25 nM; on DRB1*0405, 48 nM.
On to `CC(C)C[C@H](NC(=O)[C@H](Cc1ccccc1)NC(=O)[C@H](CC(N)=O)NC(=O)[C@H](CO)NC(=O)[C@H](Cc1ccc(O)cc1)NC(=O)[C@@H](NC(=O)[C@H](CCCNC(=N)N)NC(=O)[C@H](Cc1ccccc1)NC(=O)CNC(=O)[C@H](CCCCN)NC(=O)[C@H](CCCNC(=N)N)NC(=O)[C@H](Cc1ccccc1)NC(=O)[C@@H](NC(=O)[C@@H](N)CC(=O)O)[C@@H](C)O)C(C)C)C(=O)N[C@@H](CCCNC(=N)N)C(=O)O`, for which the 50% inhibitory concentration (IC50) at DRB1*0404 was 151 nM; at DRB1*1101 it was 10 nM.
With `CC(C)C[C@H](NC(=O)[C@H](CC(=O)O)NC(=O)[C@H](CC(N)=O)NC(=O)[C@H](CO)NC(=O)[C@H](Cc1ccc(O)cc1)NC(=O)[C@@H](NC(=O)[C@H](CCCNC(=N)N)NC(=O)[C@H](Cc1ccccc1)NC(=O)[C@H](CC(C)C)NC(=O)[C@H](CCCCN)NC(=O)[C@H](CCCNC(=N)N)NC(=O)[C@H](Cc1ccccc1)NC(=O)[C@@H](NC(=O)[C@@H](N)CC(=O)O)[C@@H](C)O)C(C)C)C(=O)N[C@@H](CCCNC(=N)N)C(=O)O`, the IC50 at DRB1*0802 was 75 nM; at DRB4*0101 it was 1390 nM; at DRB1*0101, 85 nM; on DRB1*1101, 3.6 nM; on DRB1*0301, 11500 nM; at DRB1*0401, 24 nM.
On to `CC[C@H](C)[C@H](NC(=O)[C@H](CCCNC(=N)N)NC(=O)[C@H](Cc1c[nH]c2ccccc12)NC(=O)[C@@H](NC(=O)[C@H](C)NC(=O)CNC(=O)[C@H](Cc1c[nH]c2ccccc12)NC(=O)[C@H](CO)NC(=O)[C@@H](N)CCC(=O)O)C(C)C)C(=O)N[C@@H](CC(=O)O)C(=O)N[C@H](C(=O)N1CCC[C@H]1C(=O)N[C@@H](CC(=O)O)C(=O)N[C@@H](CCCCN)C(=O)N[C@@H](CC(C)C)C(=O)N[C@H](C(=O)NCC(=O)N1CCC[C@H]1C(=O)N[C@@H](Cc1ccccc1)C(=O)N[C@H](C(=O)O)[C@@H](C)O)[C@@H](C)O)[C@@H](C)O`, for which the IC50 at DRB1*0701 was over 20000 nM; at DRB4*0101 (setting [1]), 1120 nM; on DRB1*0101 (setting [1]), 2500 nM; on DRB1*0301 (setting [1]), 3180 nM; on DRB1*0401 (setting [1]), over 20000 nM; at DRB1*0405 (setting [1]), 1730 nM.
Consider `CC(C)C[C@H](NC(=O)[C@@H](NC(=O)[C@H](CC(C)C)NC(=O)[C@@H](NC(=O)[C@H](CCCCN)NC(=O)[C@H](Cc1ccc(O)cc1)NC(=O)CN)C(C)C)C(C)C)C(=O)N[C@@H](CC(N)=O)C(=O)N1CCC[C@H]1C(=O)N[C@@H](CO)C(=O)N[C@H](C(=O)N[C@@H](C)C(=O)N[C@@H](C)C(=O)N[C@H](C(=O)O)[C@@H](C)O)C(C)C`, for which, on DRB3*0101, the IC50 was over 20000 nM.
With `CC[C@H](C)[C@H](NC(=O)[C@H](CC(N)=O)NC(=O)[C@@H](N)CCC(N)=O)C(=O)N[C@@H](CC(C)C)C(=O)N[C@@H](CC(C)C)C(=O)N[C@@H](CO)C(=O)N[C@@H](CC(N)=O)C(=O)N[C@@H](C)C(=O)N1CCC[C@H]1C(=O)N[C@@H](CC(C)C)C(=O)NCC(=O)N1CCC[C@H]1C(=O)N[C@@H](CCC(N)=O)C(=O)N[C@@H](Cc1ccccc1)C(=O)N1CCC[C@H]1C(=O)O`, the IC50 at DRB1*0802 (setting [1]) was 13400 nM; at DRB1*0404 (setting [1]) it was 143 nM; at DRB5*0101 (setting [1]) it was over 20000 nM; on DRB1*0701, 296 nM; on DRB1*1302 (setting [1]), 5.3 nM; at DRB3*0101 (setting [1]), over 20000 nM.
FNNFTVSFWLRVPKVSASHLEQY: the IC50 at DRB1*0802 amounted to 581 nM; at DRB1*0404 (setting [1]) it was 4540 nM; on DRB5*0101, 2860 nM; at DRB1*0701, 57 nM; at DRB4*0101 it was 1680 nM; at DRB1*0101, 417 nM. The IC50 was 8.3 nM at DRB1*1101 (setting [1]); 6370 nM at DRB1*1302 (setting [1]); over 20000 nM on DRB1*0301 (setting [1]); 2820 nM at DRB3*0101; 93 nM on DRB1*0401 (setting [1]).
The molecule LLKDLEEGIQTLMGR displayed an IC50 on DRB4*0101 (setting [2]) of 3710 nM.
On to LLYCFRKDMDKVETF, for which the IC50 on DRB3*0101 (setting [2]) is 6940 nM.
For LWQLNGRLEYCLKDR, the IC50 at DRB3*0101 (IFNb 15-mer peptides, Table 5D) was found to be 6780 nM. This counts as single-digit micromolar.
Take NHLKTVLEEKLEKED [NHLKTVLEEKLEKED]: the half-inhibitory concentration (IC50) at DRB5*0101 (IFNb 15-mer peptides, Table 5D) was found to be 6760 nM; on DRB4*0101 (IFNb 15-mer peptides, Table 5D), 1390 nM.
Consider TSLCFSESIPTPSNR, for which the IC50 on DRB3*0101 (setting [2]) was 22600 nM.
On to VLEEKLEKEDFTRGK, for which the concentration for half-maximal inhibition (IC50) amounted to 4610 nM at DRB5*0101 (IFNb 15-mer peptides, Table 5D); 19100 nM at DRB4*0101 (IFNb 15-mer peptides, Table 5D); 1390 nM at DRB3*0101 (IFNb 15-mer peptides, Table 5D).
For YKTIAYDEEARR, the half-maximal inhibitory concentration (IC50) on DRB5*0101, on DRB4*0101 and at DRB3*0101 was over 20000 nM each time.
